The values below are quoted from earlier work in US6979682B2, “Platelet-activating factor antagonist inhibition of angiogenesis and tumor growth induced by basic fibroblast” (Board of Supervisors of Louisiana State University and …, priority 2001, dated 2005).

The test system of data set [1] is PAF binding sites (microsomal intracellular membranes; synaptosomal plasma membrane). The conditions noted are these: Marcheselli et al., 1990; cited from earlier work.
Data set [2] has as its system angiogenesis stimulated by HGF, TNF-α or bFGF. The conditions noted are these: cited from earlier work.

Entries after “also recorded” stand apart in the source; their conditions may differ.

Turning to `CCCCCCCCCCCCCCCCCCNC(=O)OCC(COP(=O)([O-])OCC[n+]1ccsc1)OC` (stereo not shown) [CV-3988, reference compound], the “binding to the intracellular PAF binding sites” value in data set [1] is reported as “known to bind to the intracellular PAF binding sites”.
As to `Cc1nnc2n1-c1sc3c(c1C(c1ccccc1Cl)=NC2)CC(C(=O)N1CCOCC1)C3` (stereo not shown) [WEB 2170], the “angiogenesis stimulated by bFGF” value in data set [2] (Camussi et al., 1997, Montrucchio et al.) is reported as “did not inhibit; also recorded: not inhibited”. For the same compound, the “angiogenesis stimulated by HGF” value in data set [2] (Camussi et al., 1997) is “inhibited”. Besides, the “angiogenesis stimulated by TNF-α” value in data set [2] (Montrucchio et al.) is recorded as “inhibited”.
